Experimental data: patent publication US20040122209A1, “Products for regulating the degradation of collagen and methods for identifying same” (Shriners Hospital For Children, priority 2002, published 2004)
No end group written: not given here.

Tests used:
Format in all cases: cell-based
[1] = system: ERK1/2; test: Western immunoblot for phosphorylated ERK1/2 in human chondrocytes; details: at 15 min; inhibitors added before peptide
Experimental: To detect activation of MAP kinases (ERK1/2, p38 MAPK, and JNK1/2), first-passaged chondrocytes plated onto 10-cm culture dishes were incubated with CB12-II (SP), USP, TNF-α, native human type II collagen, human fibronectin, and antibodies to α2β1 and α5β1 for 5-60 min. In some experiments, chondrocytes were precultured with U0126 (inhibitor of phosphorylation of MEK1/2, up-stream kinase molecule of ERK1/2) at 1 μM for 1 h, SB203580 (inhibitor of phosphorylation of p38 MAPK) at 1 μM for 1 h, Herbimycin A (tyrosine kinase inhibitor) at 1 μg/ml for overnight, Wortmannin (PI3 kinase inhibitor) at 100 nM for 1 h, and Cytochalasin D (focal adhesion inhibitor) at 3 μM for 30 or 60 min before adding peptides.
After a variable but designated incubation time, chondrocytes were washed twice with ice cold PBS and lysed in RIPA buffer (10 mM Tris/HCl, pH 7.4, 0.1% SDS, 1% NP-40, 0.1% sodium deoxycholate, 150 mM NaCl, 1 mM EDTA) containing freshly added proteinase and phosphatase inhibitors (1 mM PMSF, 10 μg/ml leupeptin, 1 μg/ml aprotinin, 1 mM Na3VO4, 1 mM NaF). Cell lysate was centrifuged and supernatant was collected. Protein concentration was determined using Bradford's method. Equal amounts of protein were separated on 10% SDS-polyacrylamide gels under reducing conditions and were electrotransferred to a nitrocellulose membrane (Bio-Rad). To block nonspecific binding, the membranes were incubated in PBS containing 5% non-fat milk overnight at 4° C. The membranes were then probed with rabbit antibodies against phosphorylated ERK1/2, p38, and JNK1/2 (New England BioLabs). Antibodies were diluted 1:1000 in PBS containing 0.5% non-fat milk and reacted with the membrane for 1 h at room temperature. Blots were washed with PBS containing 0.1% Tween-20 three times, and incubated for 1 h at room temperature with horseradish peroxidase (HRP)-conjugated goat anti-rabbit IgG (New England BioLabs) diluted 1:2000 with PBS-0.1% Tween 20 for ECL system (Amersham). Then, the membranes were washed with PBS-Tween, and the membranes were detected with the addition of a 1:1 dilution of the ECL detection reagents (Amersham) 1 and 2 for 1 min. The solution was removed, and the membranes were wrapped in plastic wrap and exposed to film for various amounts of time.
First-passaged confluent human chondrocytes were treated with CB12-II (SP) (10 μM), USP (10 μM), anti-α2β1and α5β1 antibodies, anti-integrin α2β1 blocking antibody, and IL-1β or TNF-α. Cell lysates were immunoblotted using antibody that detects phosphorylated p-ERK1I/2 or p-MEK. In some experiments, U0126 at 10 μM, a specific inhibitor of an upstream molecule, MEK1/2, that activates ERK1/2, and SB203580 at 10 μM, that inhibits p38 MAPK activity, were added to the culture 1 h before peptides, antibodies, and cytokines. Herbimycin A, cytochalasin D, and wortmannin were also used as inhibitors.

[2] = system: bovine articular cartilage explant; test: Collagenase-cleaved type II collagen (COL2-3/4C) in bovine articular cartilage explant culture; details: 1 and 10 μM, time- and dose-dependent
Experimental: (§1) The cartilages were prepared as previously described (Dahlberg, L. et al. (2000) supra. In brief, the cartilage samples were washed three times with basal culture medium containing Dulbecco's modified Eagle's medium (DMEM; Gibco BRL, Life Technologies, Grand Island, N.Y.) with 20 mM HEAPS buffer (pH 7.4) (Gibco BRL), 45 mM NaHCO3, 100 units/ml penicillin, 100 μg/ml streptomycin and 150 μg/ml gentamycin sulphate (Medium A). Full-depth cartilage slices from a single area, around 20 mm×20 mm were cut vertical to the articular surface and then into cubes of approximately 2 mm×2 mm (5-7 cubes were randomly obtained and wet weights about 50-70 mg/well determined).
(§2) The cartilage was assigned to 48 well plate (ca 40 mg/well) and kept in Medium A supplemented with 50 μg/ml ascorbic acid, 0.1 mg/bovine serum albumin, 50 μg/ml insulin, 5.0 μg/ml and 5.0 μg/ml sodium DMEM alone at 37° C. in 95% air/5% CO2. The cartilage was precultured for 2 days and medium was changed at day 0. Thereafter medium (as described in pellet cultures) was replaced every four days. Various CNBr fragments and/or synthetic peptides were freshly added from day 0 at each medium change. Thereafter, cartilage explants and conditioned media were harvested and stored at −20° C.
(§3) The cell pellets and cartilage explant cultured for various times were digested for the extraction of collagenase-generated neoepitope COL2-3/4Cshort (Billinghurst, R. C. et al., (1997) supra) and denatured type II collagen epitope COL2-3/4m and total type II collagen (Hollander, A. P. et al. (1994a) supra), as previously described: Briefly, the harvested pellets were incubated overnight with 1.0 mg/ml α-chymotrypsin at 37° C. to cleave and solubilize denatured collagen leaving the above neoepitope and epitope intact. After inhibition of α-chymotrypsin activity with N-tosyl-L-phenelalanine-chloromethyl ketone (Sigma), the samples were centrifuged and the supernatants were removed and boiled for 10 min. The COL2-3/4Cshort epitope (hereafter referred to as COL2-3/4Cshort) generated by cleavage of type II collagen by collagenase (Billinghurst, R. C. et al. (1997) supra) and intrachain epitope (COL2-3/4m) exposed in denatured type II collagen (Hollander, A. P. et al. (1994a) supra) were measured in α-chymotrypsin extracts by immunoassay. The COL2-3/4Cshort epitope is detected in an ELISA assay using a rabbit antibody to the carboxyterminal cleavage neoepitope on the TCA piece generated by primary collagenase cleavage of type II collagen. The release of the COL2-3/4C epitope into media was also measured by immunoassay. Total contents in tissue/cells and media was recorded for COL2-3/^4Cshort epitope. The COL2-3/4m epitope was recorded in cells and tissue where it was concentrated. The remaining residues of pellets and explants were digested overnight with 1.0 mg/ml proteinase K at 56° C. to extract the remaining intact type II collagen and then boiled for 10 min to denature the enzyme. Total type II collagen content in the pellets and explant was determined from the collective amount of COL2-3/4m in both the α-chymotrypsin and proteinase K digests.

[3] = system: bovine articular cartilage explant; test: Proteoglycan (GAG) content and release in bovine explant culture; details: subpeptides at 1 and 10 μM
Experimental: The cartilages were prepared as previously described (Dahlberg, L. et al. (2000) supra. In brief, the cartilage samples were washed three times with basal culture medium containing Dulbecco's modified Eagle's medium (DMEM; Gibco BRL, Life Technologies, Grand Island, N.Y.) with 20 mM HEAPS buffer (pH 7.4) (Gibco BRL), 45 mM NaHCO3, 100 units/ml penicillin, 100 μg/ml streptomycin and 150 μg/ml gentamycin sulphate (Medium A). Full-depth cartilage slices from a single area, around 20 mm×20 mm were cut vertical to the articular surface and then into cubes of approximately 2 mm×2 mm (5-7 cubes were randomly obtained and wet weights about 50-70 mg/well determined). The cartilage was assigned to 48 well plate (ca 40 mg/well) and kept in Medium A supplemented with 50 μg/ml ascorbic acid, 0.1 mg/bovine serum albumin, 50 μg/ml insulin, 5.0 μg/ml and 5.0 μg/ml sodium DMEM alone at 37° C. in 95% air/5% CO2. The cartilage was precultured for 2 days and medium was changed at day 0. Thereafter medium (as described in pellet cultures) was replaced every four days. Various CNBr fragments and/or synthetic peptides were freshly added from day 0 at each medium change. Thereafter, cartilage explants and conditioned media were harvested and stored at −20° C. In order to show the specificity of the peptide fragments of one embodiment on degradation of type II collagen as compared with proteoglycan, primarily aggrecan, sulphated glycosaminoglycan (GAG) content was determined in both the α-chymotrypsin and proteinase K digests for total proteoglycan (predominantly aggrecan) content in cell pellets, cartilage explants and also in conditioned media. Measurement of release of proteoglycan into media was tested using dimethylene blue dye binding as previously described (Dahlberg, L. et al. (2000) supra).

[4] = system: normal human adult articular cartilage explants; test: Type II collagen cleavage by collagenase (COL2-3/4C) in human articular cartilage explant culture; details: by day 16
Experimental: Human femoral chondylar cartilages were obtained at autopsy within 18 hours of death from adult persons with no known history of arthritis and no macroscopic signs of articular degeneration. None of the persons had diabetes or had received chemotherapy prior to autopsy. Adult bovine articular cartilage was obtained from adults/bovine steers and cows from metacarpalphalangeal joints obtained at the abbatoir immediately after slaughter. All cartilage specimens were removed immediately to the laboratory under sterile conditions.
as §1, §2, §3

[5] = system: MMP-13; test: ELISA for MMP-13 in conditioned medium of human chondrocytes; details: 48 hours; CB12-II 50 μM, TNF-α 50 ng/ml
Experimental: (§4) First-passaged normal human chondrocytes isolated by the method described above and cultured at high density (2×10^5 cells/cm^2) were trypsinized and resuspended in Medium A containing 1% FCS at a density of 10^6 cells/ml. Then, 200 μl of the cell suspension was each plated onto round-bottomed 96-well culture plate. On the next day after plating, CB12-II at 50 μM, USP at 50 μM, and TNF-α at 50 ng/ml were added to the culture media, and the culture was maintained for 24-48 hours. Conditioned media were collected and subjected to ELISA assay. The ELISA kits (BIOTRAK) for MMP-1 and MMP-13 were purchased from Amersham Pharmacia Biotech (Piscataway, N.J.). Measurement range was 6.25-100 ng/ml for MMP-1 and 0.094-3 ng/ml for MMP-13. Sensitivity for the assay was 1.7 ng/ml for MMP-1 and 0.7 ng/ml for MMP-13.
(§5) Protein levels of MMP-1 and MMP-13 were also tested by incubating isolated human chondrocytes for 48 hours in high density culture (10^6 cells/ml) with CB12-II, negative control peptide USP, or cytokine TNF-α, as discussed above. MMP-1 and MMP-13 secretion into medium from the cells was measured using ELISA (see FIGS. 9A and 9B).

[6] = system: MMP-1; test: ELISA for MMP-1 in conditioned medium of human chondrocytes; details: 48 hours; CB12-II 50 μM, TNF-α 50 ng/ml
Experimental: as §4, §5

| effect of removal of hydroxylation at a single proline residue on activity of CB12-II (SP) [4] | Compound | inhibition of phosphorylation of ERK1/2 induced by CB12-II [1] | also measured |
| --- | --- | --- | --- |
| – | C=C1[C@@H](C)[C@H]2[C@H](Cc3ccccc3)NC(=O)[C@]23[C@H](OC(C)=O)/C=C/[C@@](C)(O)C(=O)[C@@H](C)C/C=C/[C@H]3[C@@H]1O [Cytochalasin D, reference compound] | inhibited | – |
| – | CO[C@H]1[C@@H](OC)C[C@H](C)[C@@H](OC)C2=CC(=O)C=C(NC(=O)/C(C)=C/C=C\[C@H](OC)[C@@H](OC(N)=O)/C(C)=C/[C@@H]1C)C2=O [Herbimycin A, reference compound] | inhibited | – |
| – | N#CC(=C(/N)Sc1ccccc1N)/C(C#N)=C(\N)Sc1ccccc1N [Peptide U0126, reference compound] | inhibited | – |
| – | C[S+]([O-])c1ccc(-c2nc(-c3ccncc3)c(-c3ccc(F)cc3)[nH]2)cc1 (stereo not shown) [SB203580, reference compound] | not | – |
| – | GEAGAPGVKGESGSPGQNGSPGPM (not fully specified) [CB12-IV, subpeptide of CB12; used as non-specific / negative control peptide (USP)] | – | induction of total collagenase cleavage of type II collagen by CB12 subpeptides [2]: less activity; proteoglycan breakdown [3]: no significant effect |
| no effect on activity | GERGPP*GPQGARGFP*GTP*GLPGVK [SP21] | – | – |
| reduced potency | GERGPP*GPQGARGFP*GTPGLP*GVK [SP18] | – | – |
| reduced potency | GERGPP*GPQGARGFPGTP*GLP*GVK [SP15] | – | – |
| no effect on activity | GERGPPGPQGARGFP*GTP*GLP*GVK [SP6] | – | – |
| – | GLPGVKGHRGYPGLDGAKGEAGAPG [CB12-III, subpeptide of the CB12 peptide of type II collagen] | – | induction of total collagenase cleavage of type II collagen by CB12 subpeptides [2]: less activity; proteoglycan breakdown [3]: no significant effect |
| – | GPRGPPGPPGKPGDDGEAGKPGKSGERGPPG [CB12-I, subpeptide of the CB12 peptide of type II collagen] | – | induction of total collagenase cleavage of type II collagen by CB12 subpeptides [2]: less activity; proteoglycan breakdown [3]: no significant effect |
| – | TNF-α | – | MMP-13 secretion into medium versus no peptide and negative control peptide (USP) [5]: significantly higher; MMP-1 secretion into medium versus no peptide and negative control peptide (USP) [6]: significantly higher |
